Assay [1] concerns P. falciparum 3D7 parasites. The experiment in a line: P. falciparum parasite viability assay (LDH). Format: cell-based. Conditions: LDH activity, 10-point dilution series, 72 h, read-out: P. falciparum 3D7 EC50. As for the experimental part: A modified version of the lactate dehydrogenase (LDH) assay described by [Gamo et al. […] Compounds were pre-dispensed in 384-well plates, RPMI/Albumax growth media was added, and P. falciparum inoculated. Plates were incubated for 72 h and then frozen at −80 °C overnight. LDH activity was quantified with the modified cofactor 3-acetylpyridine adenine dinucleotide (APAD) (Sigma Aldrich) by measuring absorbance of the tetrazolium indicator nitro blue tetrazolium (NBT) (Sigma Aldrich) at 650 nm. Parasite conditions: […] Growth inhibition assay: […] Intermediate compound dilution plates were prepared by dispensing 5 μL from each well of the compound master plate into 11.5 μL of RPMI/Albumax growth media. Duplicate assay plates (384-well) were then prepared by dispensing 0.5 μL of compound from the intermediate dilution plates into 9.5 μL of RPMI/Albumax growth media. […] The final DMSO concentration was 0.1% (to limit toxicity to parasites). […] Evaluation of parasite growth measuring lactate dehydrogenase (LDH) activity: After 72 h of incubation, plates were frozen at −80 °C overnight and then thawed at room temperature for at least 4 h. […] Plates were shaken to ensure mixing and absorbance at 650 nm was monitored using a PerkinElmer Envision plate reader after 30 min of incubation at room temperature. Data were normalised to percent growth inhibition using positive and negative controls and analyzed using TIBCO Spotfire software.

The target of assay [2] is P. falciparum Rh5 (Rh5 – basigin interaction) (Plasmodium falciparum, UniProt Q8IFM5). The experiment in a line: biochemical. More on the design: AlphaScreen of Rh5 - His-tagged basigin interaction with anti-Rh5 mAb beads; inhibition of luminescence signal. Conditions: Batch Reference=01; primary pilot screen, single point. As for the experimental part:
Using the Combi-multidrop, 5 μL of Rh5 stock solution (200 nM prepared in assay buffer) was added to columns 1–24 of the 384-well assay plate (Greiner 384-well white, low binding plate, #784904, Bioone). The PerkinElmer Janus automated dispensing system was then employed to transfer, via the pin-tool, 2 × 100 nL of the compound stock DMSO solution from the compound master plate to the assay plate. The plate was sealed and incubated for 30 min at room temperature. Using a Combi-multidrop, 5 μL of hexa-histidine tagged basigin stock solution (80 nM prepared in assay buffer) was then added to columns 1–23 and 5 μL assay buffer to column 24 of the 384-well assay plate. The plate was sealed again and incubated for 30 min at room temperature. A solution of AlphaScreen donor and acceptor beads (20 μg/mL prepared in assay buffer) plus anti-Rh5 mAb solution (2 μg/mL prepared in assay buffer) was prepared in assay buffer under subdued lighting. Using the Combi-multidrop, 10 μL of this solution was added to every well of the assay plate under subdued lighting. The plate was sealed with foil (plate max) and incubated at room temperature for 1 h. The assay plate was then analysed on the PerkinElmer Envision 2103 Multilabel Plate Reader (Ex 680, Em 520–620 nm). The optimised Rh5 AlphaScreen assay was then validated for HT screening purposes by conducting a pilot screen using known drug library (from Prestwick, Tocris and LOPAC) and the MMV Malaria Box, comprising 3708 and 400 compounds (Fig. 1), respectively. Historically, PPIs are notoriously difficult to target with small molecules. To enhance the likelihood of identifying an inhibitor of the Rh5 - basigin interaction the primary screen was conducted at a compound concentration of 20 μM. A 20 μM screening concentration is considered high, when compared to the commonly used primary screen concentrations of approximately 1–10 μM. To follow-up on hit compounds from the pilot validation screen, we next wanted to confirm the activity of the primary hits. To do this, a two-phase hit confirmation and counterscreen process was undertaken (Fig. 1). In the first phase, the 231 primary hits from both libraries were evaluated in the Rh5 AlphaScreen assay and counterscreen assay. Both assays were undertaken at 10 μM in duplicate. The counterscreen assay was conducted using AlphaScreen TruHits. […] The 45 secondary hits can be viewed in the top left quadrant of Fig. S8. Of the 45 hits, 13 compounds originated from the Malaria Box and 32 compounds from the known drug library.

In the next assay the target is PfRh5 (Plasmodium falciparum, UniProt Q8IFM5). The experiment in a line: Differential scanning fluorimetry of Rh5. It is filed as binding, P. falciparum. The conditions noted are these: DSF. On the procedure: Differential scanning fluorimetry assays were performed as described previously ([Murphy et al., 2013], [2014a], [2014b]) using a Rotor-Gene Q PCR. Briefly, purified PfRh5 was diluted in 20 mM Tris pH 8.0, 150 mM NaCl to achieve 10 μg per reaction and assayed with the appropriate concentration of inhibitor in a total reaction volume of 25 μL. SYPRO Orange (Molecular Probes, CA) was used as a fluorescence probe and detected at 530 nm. Compounds were titrated at final concentrations ranging from 5 μM to 80 μM final. Data was transformed and plotted using GraphPad Prism. Shown data are representative means of two technical experiments.

The test system of the next assay is D10-PfPHG parasites. The assay can be described thus: Schizont rupture assay. Format: cell-based, P. falciparum. As for the experimental part:
D10-PfPHG parasites ([Wilson et al., 2010]) were cultured in human O^+ erythrocytes in RPMI-HEPES culture medium (pH 7.4, 50 μg/mL hypoxanthine, 25 mM NaHCO3, 20 μg/mL gentamicin, 0.5% Albumax II (Thermo Fisher Scientific) according to established protocols ([Trager and Jensen, 1976]) and maintained in an atmosphere of 1% O2, 4% CO2 and 95% N2. For assessment of merozoite invasion after schizont rupture, parasites were tightly synchronised to a 4 h window of invasion using heparin ([Boyle et al., 2010]; [Wilson et al., 2015]) and then grown for a further 42 h. Drug treatments were setup at 2–3% parasitaemia and 1% haematocrit in 50 μL volumes with a 1 in 10 dilution of drug added when parasites were 44–48 h post invasion. After 6 h of drug treatment and immediately after invasion was expected to finish, the assays were treated with 5 μg/mL ethidium bromide (EtBr, Bio-Rad) for 5 min prior to flow cytometry assessment of parasitaemia using a Becton Dickinson Accuri. Gating of newly invaded rings, free merozoites and unruptured late stages was achieved as per published methods ([Wilson et al., 2013]).
To determine if the modest activity of pranlukast and analogues in the parasite viability assay was a consequence of invasion inhibition, rather than inhibition at another stage of blood stage parasite development, we performed an assay that measures the effect of compound treatment on P. falciparum D10 asexual stage transition between late schizont and ring stages ([Wilson et al., 2013]). In this assay, highly synchronised mature schizont-stage parasites were incubated with pranlukast and selected analogues at 50 and 100 μM and the transition to newly invaded ring stage parasites was quantified by flow cytometry. In parallel, the rate of schizont rupture and merozoite release was quantified to assess whether any reduction in newly invaded ring stages was due to a block affecting merozoite release or development. […] Neither DMSO (at the maximal concentration used for the drug treatments of 0.1%) or a non-invasion inhibitory mAb control caused a reduction in merozoite invasion. […] […].

Each structure is given as a SMILES string. Like-named read-outs stand apart in the source and are kept apart here.

Chain of PfRh5 (Q8IFM5 24-526): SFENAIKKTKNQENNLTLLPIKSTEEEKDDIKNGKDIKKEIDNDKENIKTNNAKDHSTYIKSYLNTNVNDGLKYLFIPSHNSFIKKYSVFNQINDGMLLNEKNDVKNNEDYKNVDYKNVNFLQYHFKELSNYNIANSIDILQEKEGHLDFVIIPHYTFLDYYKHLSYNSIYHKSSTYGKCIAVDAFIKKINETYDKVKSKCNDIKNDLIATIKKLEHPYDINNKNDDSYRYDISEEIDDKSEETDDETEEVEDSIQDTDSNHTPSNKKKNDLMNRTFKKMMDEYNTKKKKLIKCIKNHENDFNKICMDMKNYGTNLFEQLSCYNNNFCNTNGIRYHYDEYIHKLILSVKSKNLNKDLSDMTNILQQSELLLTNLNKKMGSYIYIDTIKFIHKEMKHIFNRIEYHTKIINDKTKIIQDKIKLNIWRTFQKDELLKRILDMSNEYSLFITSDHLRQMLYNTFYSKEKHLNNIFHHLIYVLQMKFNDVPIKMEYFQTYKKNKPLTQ
Chain of P. falciparum Rh5 (Rh5 – basigin interaction) (Q8IFM5 24-526): as above

In the case of `O=C(Nc1cccc2c(=O)cc(-c3nnn[nH]3)oc12)c1ccc(OCCCCc2ccccc2)cc1` [pranlukast], the EC50 in assay [1] is 40 µM; in assay [1] (Plasmodium falciparum, 3D7, 72 h) it was 39 µM. Besides, in assay [2], 20 µM produced 75.4% inhibition. Moreover, the “effect on Tm of Rh5” value was “dose dependent increase in the Tm of Rh5” at PfRh5 (concentrations of 0–20 μM) and “markedly lower Tm” on PfRh5 (high concentration (>40 μM)). Moreover, in the assay with D10-PfPHG parasites (50 and 100 μM, 6 h, flow cytometry), the “merozoite invasion (newly invaded early ring stages)” value was “substantial reduction in the numbers of merozoites that had invaded and formed early ring stages”. In addition, the free merozoite numbers result with D10-PfPHG parasites (lowest concentration tested (50 μM)) is given as “minimal loss in free merozoite numbers”.

Values taken from publication PMC7645381, “Development and application of a high-throughput screening assay for identification of small molecule inhibitors of the P. falciparum reticulocyte binding-like homologue 5 protein” (International Journal for Parasitology: Drugs and Drug …, 2020).
